Measurements as given in ChEMBL document CHEMBL4831531, “Mangostanin Derivatives as Novel and Orally Active Phosphodiesterase 4 Inhibitors for the Treatment of Idiopathic Pulmonary Fibrosis with Improved Safety” (J Med Chem, 2021).
Converted amounts (≈) assume the structure as drawn. The source made the active and inactive calls. The rule behind the calls is not given here.

Legend:
[1] = Solubility of the compound in deionized water; assay type: physicochemical
A549 [2] = test: Anti-idiopathic pulmonary fibrotic activity in human A549 cells assessed as reduction in TGF-beta-induced vimentin expression measured after 48 hrs by Western blot analysis; assay type: functional, cell-based; settings: dose 10-20 µM
Rattus norvegicus [3] = test: Anti-idiopathic pulmonary fibrotic activity in bleomycin-induced Sprague-Dawley rat model assessed as reversal of mid-expiratory flow at 10 mg/kg, po treated for 28 consecutive days relative to control; assay type: functional, organism-based
[4] = Toxicity in mouse assessed as change in body weight at 1.5 g/Kg, po; settings: in vivo, 1500 mg/kg
[5] = Tmax in Sprague-Dawley rat at 10 mg/kg, po; assay type: ADME, organism-based; settings: in vivo
[6] = Tmax in Sprague-Dawley rat at 5 mg/kg, po; assay type: ADME, organism-based; settings: in vivo
[7] = biological target: High affinity 3',5'-cyclic-AMP phosphodiesterase 7A (Homo sapiens, UniProt Q13946); test: Inhibition of PDE7A1 (130-482) (unknown origin) expressed in Escherichia coli BL21 assessed as using [3H]-cAMP as substrate measured for 15 mins by liquid scintillation counting analysis
Cytochrome P450 2C9 = Cytochrome P450 2C9 (Homo sapiens, UniProt P11712); test: Inhibition of human hepatic CYP2C9; assay type: ADME, tissue-based, Liver
Cytochrome P450 2C9, sequence (P11712 whole entry): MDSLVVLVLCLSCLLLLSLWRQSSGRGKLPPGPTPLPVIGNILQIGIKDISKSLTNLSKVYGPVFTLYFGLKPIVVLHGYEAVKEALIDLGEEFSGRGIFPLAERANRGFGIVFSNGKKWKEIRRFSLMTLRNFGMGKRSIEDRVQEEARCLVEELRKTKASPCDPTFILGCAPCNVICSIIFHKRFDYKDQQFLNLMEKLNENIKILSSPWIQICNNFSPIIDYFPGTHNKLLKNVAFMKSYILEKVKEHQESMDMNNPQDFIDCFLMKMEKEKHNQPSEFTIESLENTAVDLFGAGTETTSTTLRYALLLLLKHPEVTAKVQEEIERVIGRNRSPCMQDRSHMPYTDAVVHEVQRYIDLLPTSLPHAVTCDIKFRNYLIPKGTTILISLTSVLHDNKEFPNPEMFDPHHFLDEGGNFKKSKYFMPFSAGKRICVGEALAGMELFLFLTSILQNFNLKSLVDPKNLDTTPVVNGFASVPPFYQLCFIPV

Rattus norvegicus [8] = test: Anti-idiopathic pulmonary fibrotic activity in bleomycin-induced Sprague-Dawley rat model assessed as inhibition of collagen deposition around trachea and cell hyperplasia at 10 mg/kg, po treated for 28 consecutive days by Hematoxylin and eosin staining based assay relative to control; assay type: functional
[9] = biological target: cAMP and cAMP-inhibited cGMP 3',5'-cyclic phosphodiesterase 10A (Homo sapiens, UniProt Q9Y233); test: Inhibition of PDE10A2 (449-770) (unknown origin) expressed in Escherichia coli BL21 assessed as using [3H]-cAMP as substrate measured for 15 mins by liquid scintillation counting analysis
cAMP and cAMP-inhibited cGMP 3',5'-cyclic phosphodiesterase 10A, sequence (Q9Y233 whole entry): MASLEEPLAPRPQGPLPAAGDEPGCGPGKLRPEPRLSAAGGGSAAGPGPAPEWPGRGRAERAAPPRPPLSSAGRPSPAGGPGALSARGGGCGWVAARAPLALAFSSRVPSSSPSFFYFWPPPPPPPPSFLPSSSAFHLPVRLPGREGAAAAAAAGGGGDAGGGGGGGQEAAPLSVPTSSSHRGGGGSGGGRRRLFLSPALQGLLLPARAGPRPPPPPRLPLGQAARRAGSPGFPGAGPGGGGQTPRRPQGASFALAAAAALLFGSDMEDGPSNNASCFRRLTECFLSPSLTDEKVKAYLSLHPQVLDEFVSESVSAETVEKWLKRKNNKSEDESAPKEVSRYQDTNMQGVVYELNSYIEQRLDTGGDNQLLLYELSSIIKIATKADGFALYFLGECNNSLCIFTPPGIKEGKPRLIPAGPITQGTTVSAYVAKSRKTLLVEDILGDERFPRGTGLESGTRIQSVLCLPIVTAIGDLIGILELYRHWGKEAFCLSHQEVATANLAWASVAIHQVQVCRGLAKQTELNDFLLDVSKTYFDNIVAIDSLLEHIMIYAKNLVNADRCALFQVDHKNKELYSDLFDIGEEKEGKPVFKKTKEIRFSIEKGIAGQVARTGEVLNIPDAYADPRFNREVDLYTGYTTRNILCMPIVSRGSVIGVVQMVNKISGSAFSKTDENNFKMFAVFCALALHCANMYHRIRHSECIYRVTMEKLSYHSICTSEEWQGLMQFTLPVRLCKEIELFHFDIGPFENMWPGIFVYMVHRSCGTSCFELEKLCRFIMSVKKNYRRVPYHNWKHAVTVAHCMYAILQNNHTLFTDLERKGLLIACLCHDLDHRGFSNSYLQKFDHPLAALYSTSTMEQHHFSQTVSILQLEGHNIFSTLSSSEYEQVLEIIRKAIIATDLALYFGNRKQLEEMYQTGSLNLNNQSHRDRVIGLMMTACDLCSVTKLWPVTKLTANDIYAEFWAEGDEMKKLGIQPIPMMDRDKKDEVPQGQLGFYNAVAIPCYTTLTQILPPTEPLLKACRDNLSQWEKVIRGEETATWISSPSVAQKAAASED

[10] = Cmax in Sprague-Dawley rat at 10 mg/kg, po; assay type: ADME, organism-based; parameters: route oral, dose 10 mg/kg; settings: in vivo
[11] = AUC (0 to infinity) in Sprague-Dawley rat at 5 mg/kg, po; assay type: ADME, organism-based; parameters: route oral, time infinity, dose 5 mg/kg; settings: in vivo
Rattus norvegicus [12] = test: Anti-idiopathic pulmonary fibrotic activity in bleomycin-induced Sprague-Dawley rat model assessed as decrease in fibronectin expression of lungs at 10 mg/kg, po treated for 28 consecutive days by Western blot analysis; assay type: functional, organism-based
[13] = AUC (0 to t) in Sprague-Dawley rat at 5 mg/kg, po; assay type: ADME, organism-based; parameters: dose 5 mg/kg; settings: in vivo
Rattus norvegicus [14] = test: Anti-idiopathic pulmonary fibrotic activity in bleomycin-induced Sprague-Dawley rat model assessed as decrease in alpha-smooth muscle actin protein expression of lungs at 10 mg/kg, po treated for 28 consecutive days by Western blot analysis; assay type: functional, organism-based
[15] = Half life in Sprague-Dawley rat at10 mg/kg, po; assay type: ADME, organism-based; settings: in vivo, dose 10 mg/kg
Cytochrome P450 1A2 = biological target: T1, Cytochrome P450 1A2 (Homo sapiens, UniProt P05177); test: Inhibition of human hepatic CYP1A2; assay type: ADME, tissue-based, Liver
T1 sequence (P05177 whole entry): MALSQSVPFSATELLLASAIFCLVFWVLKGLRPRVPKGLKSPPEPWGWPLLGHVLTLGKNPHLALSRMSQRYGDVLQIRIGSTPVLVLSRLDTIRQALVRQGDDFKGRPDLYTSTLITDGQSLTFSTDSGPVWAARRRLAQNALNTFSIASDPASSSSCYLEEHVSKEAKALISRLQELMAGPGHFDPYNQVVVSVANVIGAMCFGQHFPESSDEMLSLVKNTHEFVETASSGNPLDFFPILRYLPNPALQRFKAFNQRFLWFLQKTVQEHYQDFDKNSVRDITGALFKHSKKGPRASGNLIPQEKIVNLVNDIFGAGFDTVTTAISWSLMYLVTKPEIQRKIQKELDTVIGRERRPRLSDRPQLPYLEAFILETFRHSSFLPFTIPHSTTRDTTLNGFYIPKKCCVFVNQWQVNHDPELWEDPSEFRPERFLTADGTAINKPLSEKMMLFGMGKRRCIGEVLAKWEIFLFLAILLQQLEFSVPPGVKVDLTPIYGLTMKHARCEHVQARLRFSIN

[16] = biological target: High affinity cAMP-specific and IBMX-insensitive 3',5'-cyclic phosphodiesterase 8A (Homo sapiens, UniProt O60658); test: Inhibition of PDE8A1 (480-828) (unknown origin) expressed in Escherichia coli BL21 assessed as using [3H]-cAMP as substrate measured for 15 mins by liquid scintillation counting analysis
Cytochrome P450 2D6 = Cytochrome P450 2D6 (Homo sapiens, UniProt P10635); test: Inhibition of human hepatic CYP2D6; assay type: ADME, tissue-based, Liver
Cytochrome P450 2D6, sequence (P10635 whole entry): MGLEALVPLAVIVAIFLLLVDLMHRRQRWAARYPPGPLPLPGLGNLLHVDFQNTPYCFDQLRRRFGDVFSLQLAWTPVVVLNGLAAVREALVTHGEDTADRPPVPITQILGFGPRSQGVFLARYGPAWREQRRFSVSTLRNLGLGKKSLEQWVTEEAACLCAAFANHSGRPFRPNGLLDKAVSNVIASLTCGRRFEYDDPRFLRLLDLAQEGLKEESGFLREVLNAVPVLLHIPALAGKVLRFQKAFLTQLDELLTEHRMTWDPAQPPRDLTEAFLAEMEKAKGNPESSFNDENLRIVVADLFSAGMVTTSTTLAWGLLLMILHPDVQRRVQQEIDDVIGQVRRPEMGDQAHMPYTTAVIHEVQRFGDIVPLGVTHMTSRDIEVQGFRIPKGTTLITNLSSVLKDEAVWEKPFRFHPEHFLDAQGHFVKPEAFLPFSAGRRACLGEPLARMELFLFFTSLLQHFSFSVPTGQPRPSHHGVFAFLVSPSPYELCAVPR

[17] = biological target: Voltage-gated inwardly rectifying potassium channel KCNH2 (Homo sapiens, UniProt Q12809); test: Inhibition of human ERG
Rattus norvegicus [18] = test: Anti-idiopathic pulmonary fibrotic activity in bleomycin-induced Sprague-Dawley rat model assessed as reversal of respiratory rate at 10 mg/kg, po treated for 28 consecutive days relative to control; assay type: functional, organism-based
[19] = Half life in Sprague-Dawley rat at 5 mg/kg, po; assay type: ADME, organism-based; settings: in vivo
[20] = biological target: cGMP-dependent 3',5'-cyclic phosphodiesterase (Homo sapiens, UniProt O00408); test: Inhibition of PDE2A (580-919) (unknown origin) expressed in Escherichia coli BL21 assessed as using [3H]-cAMP as substrate measured for 15 mins by liquid scintillation counting analysis
cGMP-dependent 3',5'-cyclic phosphodiesterase, sequence (O00408 whole entry): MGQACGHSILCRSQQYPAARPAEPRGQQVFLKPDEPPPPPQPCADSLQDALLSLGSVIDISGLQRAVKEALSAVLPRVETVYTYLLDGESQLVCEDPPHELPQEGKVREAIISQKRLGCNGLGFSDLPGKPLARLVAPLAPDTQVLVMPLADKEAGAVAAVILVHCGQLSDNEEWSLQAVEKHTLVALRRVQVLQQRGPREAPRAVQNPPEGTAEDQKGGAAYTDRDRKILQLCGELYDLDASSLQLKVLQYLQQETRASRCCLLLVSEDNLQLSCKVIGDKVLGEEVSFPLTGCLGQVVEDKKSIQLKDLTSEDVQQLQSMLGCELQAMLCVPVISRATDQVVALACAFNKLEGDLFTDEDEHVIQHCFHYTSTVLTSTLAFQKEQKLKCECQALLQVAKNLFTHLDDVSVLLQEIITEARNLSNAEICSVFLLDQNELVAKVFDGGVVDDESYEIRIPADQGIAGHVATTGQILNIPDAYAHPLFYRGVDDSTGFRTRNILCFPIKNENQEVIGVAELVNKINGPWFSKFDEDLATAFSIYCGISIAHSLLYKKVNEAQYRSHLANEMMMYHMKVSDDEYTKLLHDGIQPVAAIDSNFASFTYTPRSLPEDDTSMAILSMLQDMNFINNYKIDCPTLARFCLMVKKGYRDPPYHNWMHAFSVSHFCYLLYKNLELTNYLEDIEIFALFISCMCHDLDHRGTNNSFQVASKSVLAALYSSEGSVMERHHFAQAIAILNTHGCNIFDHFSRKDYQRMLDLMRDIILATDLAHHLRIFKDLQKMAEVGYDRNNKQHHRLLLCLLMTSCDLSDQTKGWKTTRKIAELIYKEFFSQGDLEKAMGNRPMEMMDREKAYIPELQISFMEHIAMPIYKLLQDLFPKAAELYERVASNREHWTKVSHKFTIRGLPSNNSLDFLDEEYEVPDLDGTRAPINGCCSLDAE

Cytochrome P450 3A4 = Cytochrome P450 3A4 (Homo sapiens, UniProt P08684); test: Inhibition of human hepatic CYP3A4; assay type: ADME, tissue-based, Liver
Cytochrome P450 3A4, sequence (P08684 whole entry): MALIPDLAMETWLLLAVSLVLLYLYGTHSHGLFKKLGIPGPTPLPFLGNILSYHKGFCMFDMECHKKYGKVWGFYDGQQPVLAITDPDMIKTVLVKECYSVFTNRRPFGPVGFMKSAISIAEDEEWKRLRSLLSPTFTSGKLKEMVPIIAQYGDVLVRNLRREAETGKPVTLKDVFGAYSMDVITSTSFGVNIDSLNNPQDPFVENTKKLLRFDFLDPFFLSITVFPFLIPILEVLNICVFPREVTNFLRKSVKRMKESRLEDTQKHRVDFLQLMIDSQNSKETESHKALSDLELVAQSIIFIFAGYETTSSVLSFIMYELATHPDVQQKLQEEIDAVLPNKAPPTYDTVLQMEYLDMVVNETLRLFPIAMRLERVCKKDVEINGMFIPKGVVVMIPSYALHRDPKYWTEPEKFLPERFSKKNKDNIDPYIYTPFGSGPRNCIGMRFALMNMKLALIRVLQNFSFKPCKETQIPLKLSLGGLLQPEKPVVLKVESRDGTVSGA

Rattus norvegicus [21] = test: Anti-idiopathic pulmonary fibrotic activity in bleomycin-induced Sprague-Dawley rat model assessed as reversal of enhanced pause at 10 mg/kg, po treated for 28 consecutive days relative to control; assay type: functional, organism-based
[22] = Acute toxicity in mouse at 1.5 g/Kg, po; settings: in vivo, 1500 mg/kg
[23] = biological target: High affinity cGMP-specific 3',5'-cyclic phosphodiesterase 9A (Homo sapiens, UniProt O76083); test: Inhibition of PDE9A2 (181-506) (unknown origin) expressed in Escherichia coli BL21 assessed as using […] as substrate measured for 15 mins by liquid scintillation counting analysis
High affinity cGMP-specific 3',5'-cyclic phosphodiesterase 9A, sequence (O76083 whole entry): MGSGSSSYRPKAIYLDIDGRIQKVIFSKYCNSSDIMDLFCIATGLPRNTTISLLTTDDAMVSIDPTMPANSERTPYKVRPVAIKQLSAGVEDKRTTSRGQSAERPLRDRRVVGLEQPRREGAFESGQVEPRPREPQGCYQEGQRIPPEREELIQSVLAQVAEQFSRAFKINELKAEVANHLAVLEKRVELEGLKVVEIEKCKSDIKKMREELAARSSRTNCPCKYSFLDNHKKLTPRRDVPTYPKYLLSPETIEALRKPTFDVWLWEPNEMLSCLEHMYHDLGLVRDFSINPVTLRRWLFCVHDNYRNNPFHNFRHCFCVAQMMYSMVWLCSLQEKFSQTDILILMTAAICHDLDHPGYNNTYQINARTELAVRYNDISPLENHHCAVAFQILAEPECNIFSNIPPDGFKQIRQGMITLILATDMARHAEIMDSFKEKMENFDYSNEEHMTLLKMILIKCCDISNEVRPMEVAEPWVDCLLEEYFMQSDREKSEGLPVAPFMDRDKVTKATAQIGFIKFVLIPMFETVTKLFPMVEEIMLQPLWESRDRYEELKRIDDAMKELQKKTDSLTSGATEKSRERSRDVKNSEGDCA

[24] = biological target: 3',5'-cyclic-AMP phosphodiesterase 4B (Homo sapiens, UniProt Q07343); test: Inhibition of PDE4B2 (152-487) (unknown origin) expressed in Escherichia coli BL21 assessed as using [3H]-cAMP as substrate measured for 15 mins by liquid scintillation counting analysis
3',5'-cyclic-AMP phosphodiesterase 4B, sequence (Q07343 whole entry): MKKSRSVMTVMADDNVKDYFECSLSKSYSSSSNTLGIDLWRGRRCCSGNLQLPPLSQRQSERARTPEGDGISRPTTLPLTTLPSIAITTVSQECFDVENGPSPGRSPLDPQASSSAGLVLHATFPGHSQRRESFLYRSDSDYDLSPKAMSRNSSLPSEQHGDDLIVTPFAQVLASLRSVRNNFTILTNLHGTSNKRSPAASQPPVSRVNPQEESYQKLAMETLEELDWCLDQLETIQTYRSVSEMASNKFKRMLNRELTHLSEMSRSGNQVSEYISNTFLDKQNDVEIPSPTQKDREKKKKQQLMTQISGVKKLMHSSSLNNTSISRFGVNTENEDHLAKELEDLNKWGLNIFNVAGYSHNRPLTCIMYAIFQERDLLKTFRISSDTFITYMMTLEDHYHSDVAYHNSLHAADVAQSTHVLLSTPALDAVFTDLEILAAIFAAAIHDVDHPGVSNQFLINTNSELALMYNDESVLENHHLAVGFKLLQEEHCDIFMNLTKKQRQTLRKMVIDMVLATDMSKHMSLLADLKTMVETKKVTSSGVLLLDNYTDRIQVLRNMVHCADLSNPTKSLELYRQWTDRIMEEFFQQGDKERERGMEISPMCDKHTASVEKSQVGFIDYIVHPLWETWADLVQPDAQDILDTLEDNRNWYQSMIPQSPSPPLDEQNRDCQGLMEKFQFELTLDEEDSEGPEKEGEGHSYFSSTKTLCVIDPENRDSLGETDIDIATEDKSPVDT

A549 [25] = test: Anti-idiopathic pulmonary fibrotic activity in human A549 cells assessed as reduction in TGF-beta-induced N-cadherin expression measured after 48 hrs by Western blot analysis; assay type: functional, cell-based; settings: dose 10-20 µM
[26] = biological target: Dual specificity calcium/calmodulin-dependent 3',5'-cyclic nucleotide phosphodiesterase 1C (Homo sapiens, UniProt Q14123); test: Inhibition of PDE1C (147-531) (unknown origin) expressed in Escherichia coli BL21 assessed as using [3H]-cAMP as substrate measured for 15 mins by liquid scintillation counting analysis
[27] = biological target: cGMP-specific 3',5'-cyclic phosphodiesterase (Homo sapiens, UniProt O76074); test: Inhibition of PDE5A1 (535-860) (unknown origin) expressed in Escherichia coli BL21 assessed as using […] as substrate measured for 15 mins by liquid scintillation counting analysis

Question: What does the source list for `COc1c(OCc2ccc(F)cc2)cc2oc3cc4c(c(OC/C=C/C(=O)O)c3c(=O)c2c1CC=C(C)C)C=CC(C)(C)O4`?
Answer: solubility [1]: 1.1 µg/mL (≈ 1.83 µM); Activity (A549 [2]): Dose-Dependent Effect; Activity (Rattus norvegicus [3]): Active; Activity [4]: Non-Toxic; Tmax [5]: 1 h; Tmax [6]: 1 h; IC50 [7]: 298 nM; IC50 (Cytochrome P450 2C9): 1700 nM; inhibition in vivo at 10 mg/kg (Rattus norvegicus [8]): 100%; IC50 [9]: 260 nM; Cmax [10]: 1070 ng/mL; AUC(0-inf) [11]: 8460 ng·h/mL; Activity (Rattus norvegicus [12]): Active; AUC(0-t) [13]: 8420 ng·h/mL; Activity (Rattus norvegicus [14]): Active; half-life [15]: 61.2 min; IC50 (Cytochrome P450 1A2): > 25 µM; IC50 [16]: 710 nM; IC50 (Cytochrome P450 2D6): > 25 µM; IC50 [17]: > 40 µM; Activity (Rattus norvegicus [18]): Active; half-life [19]: 93 min; IC50 [20]: 940 nM; IC50 (Cytochrome P450 3A4): > 25 µM; Activity (Rattus norvegicus [21]): Active; Activity [22]: Non-Toxic; IC50 [23]: > 10 µM; IC50 [24]: 140 nM; Activity (A549 [25]): Dose-Dependent Effect; IC50 [26]: 440 nM; IC50 [27]: 93 nM
